Experimental data taken from patent US20240343734A1, “NOVEL SMALL MOLECULE INHIBITORS OF PUS7 AND USES THEREOF” (City of Hope, priority 2021, published 2024).

Test system: GSCs
Experiment: GSC growth (several lines, stated for GSCs in general)
Format: cell-based, human
Details: 0.5, 1, 2, 4, 8 μM
Procedure: GSCs were derived from newly diagnosed grade IV GBM patients. GSCs and NSCs were maintained in spheres in DMEM-F12 medium supplemented with 2 mM L-glutamine, 27.4 mM HEPES, B27, 20 ng ml^−1 EGF, 20 ng ml^−1 FGF and 5 μg ml^−1 heparin as described (Cui, Q., et al., supra). Established GBM cells were maintained in DMEM medium supplemented with 2 mM L-glutamine and 10% FBS. All cultures were mycoplasma-free as confirmed using MycoAlert PLUS Mycoplasma Detection Kit (Lonza). GSCs or NSCs were treated with PUS7 inhibitors at indicated concentration for 72 h. GSCs were treated with IFNα at indicated doses for 6 days.
GSC growth, sphere formation and limiting dilution assays were performed as described 9 Cui, Q., et al., supra). For growth, GSCs were seeded at 5×10^4 cells per well in 24-well plates and cultured for 7 days. Cell growth was monitored by cell counting using a hemocytometer. For sphere formation, GSCs were seeded at 1 cell per well in 96-well plates or 100 cells per well in 48-well plates and cultured for 2 weeks. Spheres were counted under microscope. For limiting dilution assay, GSCs were seeded into 96-well plates at 1, 5, 10, 20, 50 and 100 cells per well. The number of sphere-forming wells was recorded in two weeks. The limiting dilution analysis was performed using the extreme limiting dilution analysis software at http://bioinf.wehi.edu.au/software/elda.

SMILES: NC(=O)c1[nH]nc([C@@H]2O[C@H](CO)[C@@H](O)[C@H]2O)c1O [pyrazofurin]
- dose effect on the growth of PBT003 and PBT707 GSCs (significance) (FIG. 17B): p<0.0001 for 0.5, 1, 2, 4, and 8 μM conditions
- dose effect on the growth of PBT0030, NSC005, and NSC010 (significance) (FIG. 17C): p<0.0001 for 0.5, 1, 2, 4, and 8 μM conditions for PBT030 only
